# Test results reported in US20130039928A1, “COMPOSITIONS AND METHODS FOR REVERSING CORTICOSTEROID RESISTANCE OR TREATING RESPIRATORY INFECTIONS” (priority 2010, published 2013).
# How the values were obtained:
# [1] = system: nontypeable Haemophilus influenzae; details: COPD alveolar macrophages, compared to vehicle
# Experimental: (§1) Human alveolar macrophages were purified from individual BAL samples by centrifugation and seeded onto 6-well tissue culture plates. After incubation for 2 h, non-adherent cells were removed and the adherent cells were incubated with R, S-sulforaphane (5 μM; LKT Laboratories, Inc., St. Paul, Minn.) and or DMSO in RPMI 1640 culture medium with 10% FBS and 1% penicillin-streptomycin (Invitrogen, Carlsbad, Calif.). After 16-20 h, adherent cells were scraped, suspended in RPMI 1640 culture media and plated onto 96-well tissue culture plates for bacterial phagocytosis and clearance assays. […] For MARCO antibody-depletion, alveolar macrophages were incubated with human anti-MARCO antibody (1 μg/ml; (Hycult, Uden, The Netherlands) for 4 hours prior to bacterial challenge.
# Sputum isolates of nontypeable H. influenzae and P. aeruginosa obtained from patients with COPD at the Department of Veterans Affairs, Western New York Healthcare System were used (S. Sethi, N. Evans, B. J. Grant, T. F. Murphy, N Engl J Med 347, 465 (Aug. 15, 2002); C. S. Berenson, M. A. Garlipp, L. J. Grove, J. Maloney, S. Sethi, J Infect Dis 194, 1375 (Nov. 15, 2006); T. F. Murphy et al., Am J Respir Crit Care Med 177, 853 (Apr. 15, 2008); T. F. Murphy, A. L. Brauer, A. T. Schiffmacher, S. Sethi, Am J Respir Crit Care Med 170, 266 (Aug. 1, 2004)). […]
# (§2) Bacterial phagocytosis was quantified using a flow cytometry analysis.
# [2] = system: MARCO
# Experimental: as §1
# (§3) GAPDH was used for normalization.
# [3] = system: Nrf2; details: COPD alveolar macrophages
# Experimental: as §1, §3
# [4] = system: IL-8 promoter; experiment: ChIP of IL-8 promoter (histone acetylation, HDAC2 binding) in alveolar macrophages; assay type: cell-based, human
# Experimental: For inducing corticosteroid resistance, PMs were exposed to cigarette smoke condensate (CSC, 100 μg/ml; Murty Pharmaceuticals, Lexington, Ky.) for 16 h. Exposure to S-nitrosoglutathione (GSNO, 10 μM) was limited to 4 h. […] For assessing corticosteroid responsiveness, macrophages were incubated with dexamethasone (1 μM, Sigma) for 1 h followed by LPS (100 ng/ml, Sigma) for additional 4 h.
# Chromatin immunoprecipitation was performed as described previously (Hogg, J. C. & Timens, W., Annu Rev Pathol (2008)). Briefly, cells were fixed in ˜1% formaldehyde in cell growth media for 10 minutes followed by glycine fixation. Cells were then sonicated in ChIP-lysis buffer containing a protease inhibitor cocktail after incubation on ice for 30 minutes. […] sonication, the samples were spun at maximum speed for 12 minutes in a cold microcentrifuge. The supernatants were then addressed as input samples. A part of the input sample was precleared by using a 50% slurry of protein A/G beads prepared in immunoprecipitation (IP) buffer for 2 hours in the cold, following which the beads were centrifuged out and the supernatant was used for IP. Then the precleared samples were incubated with 2 μg of panacetylated histone H4 antibody (ChIP assay kit; Upstate Biotechnology) or anti-HDAC2 antibody from Santa Cruz Biotechnology. As a control, anti-rabbit IgG antibody was added for 1 hour in the cold. The protein A/G bead slurry was added to each reaction and was rotated overnight. The next day, the beads were washed extensively, and the DNA was reverse crosslinked, eluted in elution buffer, and stored at −80° C. until used for sequencing or PCR validation assays. […] This immunoprecipitated DNA was used for PCR amplification by using the specific gene (IL-8 for humans and MCP-1 for mice) promoter PCR assays. PCR primers were used for the IL-8 promoter (forward: 5′-[…]-3′ and reverse: 5′-[…]-3′) and the MCP-1 promoter (forward: 5′-[…]-3′ and reverse: 5′-[…]-3′).
# [5] = system: THP-1 macrophages; experiment: Phagocytosis of FITC-PA in THP-1 macrophages; assay type: cell-based, human
# Experimental: BMDM were isolated by culturing bone marrow cells in the presence of 10 ng/ml granulocyte-macrophage colony-stimulating factor (PeproTech) for 7 days. Murine macrophages were cultured in RPMI 1640 medium supplemented with 10% FBS and 1% penicillin-streptomycin. The human THP-1 cell line (American Type Culture Collection, Manassas, Va.) was grown in RPMI 1640 medium supplemented with 10% non-heat-inactivated fetal bovine serum and β-mercaptoethanol per manufacturer's instructions. Macrophage differentiation occurred through supplementation with 20 ng/ml Phorbol 12-myristate 13-acetate (Sigma Aldrich, St. Louis, Mo.) for 48 h.
# as §2
# THP-1 cells were infected with lentivirus particles containing MARCO shRNA (Open Biosystems, Huntsville, Ala.). Puromycin supplemented medium ensured positive selection of lentivirus plasmid-expres sing cells, and knockdown of MARCO mRNA and protein was confirmed by both real-time PCR and western blot.
smiles,measurement,setting,value
C[S+]([O-])CCCCN=C=S (centres unmarked) [sulforaphane],phagocytosis of FITC-labeled nontypeable Haemophilus influenzae,[1],significantly enhanced phagocytosis
same,surface expression of MARCO protein,"[2]; COPD alveolar macrophages, flow cytometry, compared to vehicle, p<0.001",2- to 5 fold
same,expression of MARCO mRNA,"[2]; alveolar macrophages transfected with Nrf2-siRNA, compared to control ssRNA",failed to upregulate the expression of MARCO mRNA
same,Nrf2-regulated target genes (NQO1 & GPX2) mRNA,[3],upregulation of Nrf2-regulated targets genes
same,Nrf2 protein levels,"[3]; flow cytometry, vs vehicle",elevated levels of Nrf2 protein
same,HDAC2 binding in the IL-8 promoter,[4]; COPD alveolar macrophages,significantly increased the levels of HDAC2 binding
same,HDAC2 binding in the IL-8 promoter,[4]; in the presence of buthionine sulfoximine,failed to increase HDAC2 binding
same,histone acetylation on the IL-8 promoter,[4]; sulforaphane treatment with DEX,concomitant reduction
same,histone acetylation in IL-8 promoter,"[4]; sulforaphane, baseline and after LPS",decrease in histone acetylation
same,phagocytosis of FITC-Pseudomonas aeruginosa,[5]; THP-1 macrophages transfected with Luc-shRNA,significantly elevated phagocytosis
same,phagocytosis of FITC-Pseudomonas aeruginosa,[5]; THP-1 macrophages with MARCO-shRNA,but not in MARCO-shRNA
